Reference: US12448372B2, “Class of triaromatic compounds targeting bifunctional phosphorylation site of STAT3 and applications thereof” (SHANGHAI YUYAO BIOTECH LTD., priority 2019, dated 2025)
Entries after “also recorded” stand apart in the source; their conditions may differ. Where two headings read alike, the source gives them in different places.

Assays:
[1] = molecular target: STAT3 protein (Homo sapiens, UniProt P40763); assay: Binding activity to STAT3 protein by microscale thermophoresis (MST); details: purified STAT3 recombinant protein
Chain of STAT3 protein (P40763 whole entry): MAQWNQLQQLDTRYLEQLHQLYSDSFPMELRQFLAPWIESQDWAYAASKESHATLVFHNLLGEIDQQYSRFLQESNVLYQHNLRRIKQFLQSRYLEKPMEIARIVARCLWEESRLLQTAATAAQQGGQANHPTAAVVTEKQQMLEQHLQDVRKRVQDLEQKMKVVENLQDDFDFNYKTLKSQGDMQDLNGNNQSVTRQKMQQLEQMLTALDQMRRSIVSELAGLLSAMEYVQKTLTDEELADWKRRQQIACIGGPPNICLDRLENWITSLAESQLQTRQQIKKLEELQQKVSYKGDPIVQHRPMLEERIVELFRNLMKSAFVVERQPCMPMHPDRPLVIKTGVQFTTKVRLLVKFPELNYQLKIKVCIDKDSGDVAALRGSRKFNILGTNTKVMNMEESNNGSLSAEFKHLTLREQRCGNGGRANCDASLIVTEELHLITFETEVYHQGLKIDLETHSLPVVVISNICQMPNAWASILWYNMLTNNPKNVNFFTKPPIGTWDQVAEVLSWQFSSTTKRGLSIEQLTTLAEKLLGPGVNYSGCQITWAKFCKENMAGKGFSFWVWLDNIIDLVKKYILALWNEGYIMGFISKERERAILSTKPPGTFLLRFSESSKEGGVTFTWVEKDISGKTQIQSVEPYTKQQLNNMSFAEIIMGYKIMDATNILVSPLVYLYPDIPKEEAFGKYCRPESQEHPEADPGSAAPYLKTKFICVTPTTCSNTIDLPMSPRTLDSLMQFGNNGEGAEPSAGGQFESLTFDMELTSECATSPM
Summary of the method: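 His-tag-labelled purified recombinant STAT3 (final 100–200 nM) was mixed with compounds at 16 concentrations in MST buffer and incubated 30 min protected from light. Thermophoresis read in capillaries gave KD values.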

[2] = tested on: Capan-2; assay: Cell proliferation by MTS method, Capan-2; assay type: cell-based; details: Homo sapiens
Summary of the method: (§1)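 Cells were seeded at 1-20×10^3 per well and allowed to adhere, then exposed to a range of compound concentrations against medium-only controls for 24-96 h. MTS was added in the dark, plates incubated at 37° C., and absorbance read at 490 nm; IC50 from triplicate experiments.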

[3] = tested on: Huh7; assay: Cell proliferation by MTS method, Huh7; assay type: cell-based; details: Homo sapiens, Huh-7
Summary of the method: as §1

[4] = tested on: HCC827; assay: Cell proliferation by MTS method, HCC827; assay type: cell-based; details: Homo sapiens
Summary of the method: as §1

[5] = tested on: PANC-1; assay: Cell proliferation by MTS method, PANC-1; assay type: cell-based; details: Homo sapiens, Pancreatic Cancer
Excerpt: (§2) (2) Detection of Cell Proliferation by MTS Method
(§3) The MTS assay is a method for indirectly determining the number of living cells via colourimetric method. MTS is a newly synthesised tetrazole compound that reflects cell viability, which can be reduced by succinate dehydrogenase in the mitochondria of living cells to an orange-coloured formazan with an absorbance of the reduced product measured at 490 nm being in proportion to the number of living cells, thus reflecting the cell viability. This assay can be used to evaluate the effect of the compound on the proliferation of pancreatic cancer cells, thereby determining the inhibitory effect of the compound on the proliferation of pancreatic cancer cells and to calculate the IC^50. Each cells were inoculated uniformly into a 96-well plate at a density of 1-20×10^3 cells/well, 100 μL per well, and placed in a constant temperature incubator until the cells adhered to the wall. […] Under light-proof conditions, MTS was added and well mixed, the mixture was placed in a constant temperature incubator at 37° C., and the light absorption value were measured using an enzyme marker at 490 nm and the experiment was repeated for three times, IC50 was calculated with GraphPad5 Prism software.

[6] = tested on: MIAPACA-2; assay: Cell proliferation by MTS method, MIAPACA-2; assay type: cell-based; details: Homo sapiens, MIA PaCa-2, Pancreatic Cancer
Excerpt: as §2, §3

[7] = tested on: SW1990; assay: Cell proliferation by MTS method, SW1990; assay type: cell-based; details: Homo sapiens, Pancreatic Cancer
Excerpt: as §2, §3

[8] = tested on: CFPAC-1; assay: Cell proliferation by MTS method, CFPAC-1; assay type: cell-based; details: Homo sapiens, Pancreatic Cancer
Excerpt: as §2, §3

[9] = tested on: MGC803; assay: Cell proliferation by MTS method, MGC803; assay type: cell-based; details: Homo sapiens, MGC-803, gastric Cancer
Excerpt: as §2, §3

[10] = tested on: DU145; assay: Cell proliferation by MTS method, DU145; assay type: cell-based; details: Homo sapiens, DU-145, Prostate Cancer
Excerpt: as §2, §3

[11] = tested on: LNCAP; assay: Cell proliferation by MTS method, LNCAP; assay type: cell-based; details: Homo sapiens, Prostate Cancer
Excerpt: as §2, §3

[12] = tested on: HCT8; assay: Cell proliferation by MTS method, HCT8; assay type: cell-based; details: Homo sapiens, HCT-8, Colon Cancer
Excerpt: as §2, §3

[13] = tested on: HT29; assay: Cell proliferation by MTS method, HT29; assay type: cell-based; details: Homo sapiens, HT-29, Colon Cancer
Excerpt: as §2, §3

[14] = tested on: HCT-116; assay: Cell proliferation by MTS method, HCT-116; assay type: cell-based; details: Homo sapiens, Colon Cancer
Excerpt: as §2, §3

[15] = tested on: A549; assay: Cell proliferation by MTS method, A549; assay type: cell-based; details: Homo sapiens, Lung Cancer
Excerpt: as §2, §3

[16] = tested on: H460; assay: Cell proliferation by MTS method, H460; assay type: cell-based; details: Homo sapiens, NCI-H460, Lung Cancer
Excerpt: as §2, §3

[17] = tested on: H1299; assay: Cell proliferation by MTS method, H1299; assay type: cell-based; details: Homo sapiens, NCI-H1299, Lung Cancer
Excerpt: as §2, §3

[18] = tested on: H522; assay: Cell proliferation by MTS method, H522; assay type: cell-based; details: Homo sapiens, NCI-H522, Lung Cancer
Excerpt: as §2, §3

[19] = tested on: H1975; assay: Cell proliferation by MTS method, H1975; assay type: cell-based; details: Homo sapiens, NCI-H1975, Lung Cancer
Excerpt: as §2, §3

[20] = tested on: SK-hep1; assay: Cell proliferation by MTS method, SK-hep1; assay type: cell-based; details: Homo sapiens, Liver Cancer
Excerpt: as §2, §3

[21] = tested on: SMMC7721; assay: Cell proliferation by MTS method, SMMC7721; assay type: cell-based; details: Homo sapiens, SMMC-7721, Liver Cancer
Excerpt: as §2, §3

[22] = tested on: a variety of tumour cells; assay: Cell proliferation by MTS method, summary over a variety of tumour cells; assay type: cell-based; details: summary over different types of cancer cells; read-out: half effective proliferation inhibition concentration (IC50) against a variety of tumour cells
Excerpt: as §2, §3

[23] = tested on: STAT3-Tyr705 and Ser727 in pancreatic cancer cells; assay: Western blot of STAT3 phosphorylation in pancreatic cancer cells; assay type: cell-based; details: 12-24 h, FIG. 1A
Excerpt: Finally, the expression levels of protein were detected by Odyssey scanner.

[24] = molecular target: STAT3 SH2 domain (Homo sapiens, UniProt P40763); assay: Microscale thermophoresis binding to STAT3 SH2 domain; details: MST, FIG. 5A; read-out: affinity for the STAT3 SH2 domain
Chain of STAT3 SH2 domain (P40763 580-670 limits assumed): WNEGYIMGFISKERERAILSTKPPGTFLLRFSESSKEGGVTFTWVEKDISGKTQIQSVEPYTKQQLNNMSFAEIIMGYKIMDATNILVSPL
Excerpt: The microscale thermophoresis (MST) technique is a simple, rapid, and accurate method for quantifying biomolecular interactions. It can measure the movement of molecules in a microscopic temperature gradient field, as well as detect changes of molecular hydration shell, charge and size. When the Nanotemper microscale thermophoresis instrument locally heated by a infrared laser, molecules will move in a directional manner, then the molecular distribution ratio in the temperature gradient field are analyzed by a fluorescence to detect whether a small molecule compound binds to a target protein. The experimental operation is as follows: firstly, compounds to be tested are diluted in a gradient using MST test buffer, total 16 concentrations being configured; subsequently, the purified STAT3 recombinant protein is labeled using the HIS tag labeling kit, and the final concentration of the labeled protein is 100-200 nM; the labeled STAT3 proteins are well mixed with the diluted compounds and incubated and protected from light for 30 minutes; finally the samples were loaded by capillary tube and detected on the instrument. The binding constants (K^D) of small molecules to STAT3 protein were analyzed by Mo. analysis software.
(1) Microscale Thermophoresis Experiment
The method is as described in Example 40.

[25] = tested on: human pancreatic cancer cells PANC-1; assay: Subcutaneous tumor-bearing experiment in nude mice, PANC-1
Description: (1-10)×10^6 human pancreatic cancer cells PANC-1 and MIAPACA-2 were injected subcutaneously into the right side of the back of immunodeficient mice (BALB/c-nude, nude mice, 5-6 weeks), and when the tumours grew to about 100 mm^3, the mice were evenly divided into five groups, i. e. blank control group; 5 mg/kg WB737 low-dose group; 10 mg/kg WB737 medium-dose group; 20 mg/kg WB737 high-dose group; 10 mg/kg IACS-010759 positive control group; all the above compounds were formulated with 0.5% MC and administered by gavage. Tumour volume and mouse weight were measured every four days, and tumour volume was calculated according to the formula of volume=length×width^2×0.52. After 3 weeks post-administration, mice were sacrificed and subcutaneous tumours were peeled off, weighed and photographed.

Cn1c(C(=O)N2CCN(Cc3ccc(OCC(F)(F)F)cc3)CC2)cc2ccc(Oc3cnc(-c4nc(-c5ccc(C(F)(F)F)cc5)no4)cn3)cc21 [Example 6, (6-((5-(3-(4-(trifluoromethyl)phenyl)-1,2,4-oxadiazol-5-yl)pyrazin-2-yl)oxy)1-methyl-1H-indol-2-yl)(4-(4-(2,2,2-trifluoroethoxy)benzyl)piperazin-1-yl)methanone]
Kd [1]: < 10 nM
IC50 ([2]; Pancreatic Cancer, Capan-2, read-out: IC50): 9.4 nM
IC50 ([2]; Table 1, Capan-2, read-out: Tumour cell proliferative activity/IC50(nM) Pancreatic Cancer Capan-2): < 10 nM
IC50 ([3]; Liver Cancer, Huh7, read-out: IC50): 8.6 nM
IC50 ([3]; Table 1, Huh7, read-out: Tumour cell proliferative activity/IC50(nM) Liver Cancer Huh7): < 10 nM
IC50 ([4]; Lung Cancer, HCC827, read-out: IC50): 0.5 nM
IC50 ([4]; Table 1, HCC827, read-out: Tumour cell proliferative activity/IC50(nM) Lung Cancer HCC827): < 10 nM
IC50 [5]: 8.1 nM
IC50 [6]: 8.8 nM
IC50 [7]: 1.3 nM
IC50 [8]: 3.1 nM
IC50 [9]: 3.6 nM
IC50 [10]: 12.4 nM
IC50 [11]: 10.3 nM
IC50 [12]: 20.9 nM
IC50 [13]: 31.6 nM
IC50 [14]: 11.3 nM
IC50 [15]: 11.9 nM
IC50 [16]: 4.6 nM
IC50 [17]: 26 nM
IC50 [18]: 12 nM
IC50 [19]: 11.7 nM
IC50 [20]: 18.6 nM
IC50 [21]: 6.4 nM
IC50 [22]: 0.5 to 32 nM
concentration that completely inhibits the expression of STAT3-Tyr705 and Ser727 [23]: lower than 50 nM
Kd [24]: 2.25 nM
effect on the body weight of mice ([25]; PANC-1 subcutaneous model, gavage, WB737 5-20 mg/kg, IACS-010759 10 mg/kg, FIG. 2D/5C): no significant effect on the body weight of mice; also recorded: good tolerability
tumor growth (tumor volume and tumor weight) ([25]; PANC-1 subcutaneous, BALB/c-nude mice, 5, 10, 20 mg/kg by gavage, 3 weeks, FIG. 2): significantly inhibits the growth of pancreatic tumour
phosphorylation of STAT3^Y705/S727 bifunctional phosphorylation site in tumour tissue (WB and IHC) ([25]; PANC-1 tumour tissues, FIG. 2E and 2F): dose-dependently inhibits phosphorylation
